Measured values published in patent US9845327B2, “Treatment of proteinopathies” (THE GENERAL HOSPITAL CORPORATION, priority 2011, dated 2017).

B1: GCase polypeptide: myc-tagged GCase polypeptide expression construct transfected into Hela cells (protein, UniProt P04062 40-536, looked up)
Lysosomal acid …: ARPCIPKSFGYSSVVCVCNATYCDSFDPPTFPALGTFSRYESTRSGRRMELSMGPIQANHTGTGLLLTLQPEQKFQKVKGFGGAMTDAAALNILALSPPAQNLLLKSYFSEEGIGYNIIRVPMASCDFSIRTYTYADTPDDFQLHNFSLPEEDTKLKIPLIHRALQLAQRPVSLLASPWTSPTWLKTNGAVNGKGSLKGQPGDIYHQTWARYFVKFLDAYAEHKLQFWAVTAENEPSAGLLSGYPFQCLGFTPEHQRDFIARDLGPTLANSTHHNVRLLMLDDQRLLLPHWAKVVLTDPEAAKYVHGIAVHWYLDFLAPAKATLGETHRLFPNTMLFASEACVGSKFWEQSVRLGSWDRGMQYSHSIITNLLYHVVGWTDWNLALNPEGGPNWVRNFVDSPIIVDITKDTFYKQPMFYHLGHFSKFIPEGSQRVGLVASQKNDLDAVALMHPDGSAVVVVLNRSSKDVPLTIKDPAVGFLETISPGYSIHTYLWRRQ
modifications: myc tag
notes: myc-tagged GCase polypeptide expression construct transfected into Hela cells

How the values were obtained:
[1] = system: total cellular proteins; test: Total cellular protein solubility by sequential extraction, SDS-PAGE and Coomassie brilliant blue staining; assay type: cell-based, mouse; details: leupeptin treatment
Method: (§1) As discussed above, the increased α-synuclein levels and toxicity that occur with GCase polypeptide depletion may result from generalized lysosomal inhibition or may be due to alterations in GlcCer lipid metabolism. To distinguish between these two possibilities, in this Example, the lysosomal protein degradation was inhibited with leupeptin in WT α-synuclein-expressing neurons and the neurotoxicity was assessed. […] Thus, despite similar effects on the total α-synuclein levels by leupeptin or GCase polypeptide KD, only GCase polypeptide KD increased the steady-state levels of soluble HMW α-synuclein. In this Example, sequential extraction followed by SDS-PAGE/Coomassie brilliant blue (CBB) staining was used to determine the effect of leupeptin treatment on the solubility of total cellular proteins.
(§2) Cells were harvested in Triton X-100 lysis buffer. The extracts were centrifuged at 100,000×g for 30 min. The pellets were extracted in 2% SDS buffer. Similar procedures were utilized for mouse and human brain tissues, using 20 volumes of Triton X-100 lysis buffer. Samples were loaded onto SDS-PAGE gels or subjected to native SEC followed by western blot analysis as described below (Mazzulli et al., J. Neurosci. 26:10068, 2006).

[2] = system: α-synuclein/LAMP1 colocalized puncta; test: Immunostaining of α-synuclein and LAMP1, condensed nuclei count in primary neurons; assay type: cell-based
Method: Next in this Example, the effect of GlcCer on α-synuclein fibril formation was assessed under acidic conditions (pH 5.0, 37° C.), to simulate a lysosome-like environment in vitro because the neuronal culture data had indicated increased colocalization of α-synuclein with LAMP1 upon GCase polypeptide KD (FIGS. 5H and 5I). […] An increased frequency of condensed nuclei in WT α-synuclein/GC-depleted cells, compared to WT α-synuclein/scrb shRNA cells (panel H), was consistent with a decline in neuronal viability. […] The α-synuclein detected in P2 was in the form of a T-sol 18 kDa monomer (panel I, left), as well as T-insoluble monomer and multimers (panel I, right).
(§3) Cortical cells grown on poly-D-lysine coated coverslips in 12 well clusters were washed very briefly in warm PBS followed by rapid fixation in PBS-buffered 4% paraformaldehyde (w/v) for 15 min. […] Coverslips were mounted onto glass slides with 10 μl of 4,6-diamidino-2-phenylindole dihydrochloride (DAPI)-containing Fluoromount G (Southern Biotech, #0100-20) and visualized with a fluorescence microscope. For quantification of α-synuclein and LC3 immunostaining, pixels from equal-time exposed images were quantified using Adobe Photoshop software CS2 (Adobe Systems), and normalized to DAPI.

[3] = system: primary cortical neurons; test: Neurotoxicity assessment (neurofilament immunostaining, neuronal volume) in primary cortical neurons expressing human WT α-synuclein; assay type: cell-based
[4] = system: α-synuclein; test: α-synuclein solubility and oligomers (sequential extraction/western blot, native SEC, immunostaining) in primary cortical neurons; assay type: cell-based
Method: as §1, §2
Infected cortical cells (8,000,000 cells/10 cm plate) were harvested in Triton X-100 lysis buffer and 100,000×g Triton X-100 soluble lysate was loaded onto a Superdex 200 HR 10/300 column (GE healthcare) as described previously (Mazzulli et al., J. Neurosci. 26:10068, 2006). Quantification of α-synuclein oligomers has been described in detail previously (Tsika et al., J. Neurosci. 30: 3409, 2010).
as §3, with “min. Cells were incubated with PBS containing 0.3% (v/v) Triton X-100 overnight at 4° C., then blocked in 2% (w/v) bovine serum albumin (BSA) (Sigma-Aldrich, # A-7906) and 10% normal goat serum (Jackson Immunoresearch Laboratories, #005-000-121) in PBS-Triton X-100 for 1 hr. Primary antibodies were diluted into blocking buffer (see above for dilutions), incubated overnight at 4° C., and washed extensively in PBS-Triton X-100.” for “min.”

[5] = system: primary cortical neurons; test: Proteolysis of long-lived proteins by radioactive pulse-chase in primary cortical neurons; assay type: cell-based, mouse; details: added to GCase polypeptide KD
Method: In this Example, a test was conducted to determine whether GCase polypeptide KD affects a lysosomal degradation pathway. In this test, neurons were treated with the well-established lysosomal inhibitors ammonium chloride (NH4Cl) and leupeptin.
Proteolysis of long-lived proteins was determined by radioactive pulse-chase using ^3H-leucine. This procedure was performed as described previously (Kaushik et al. Methods Enzymol. 452: 297, 2009). Briefly, cortical cells were grown in 24 well clusters seeded at 33000 cells/well and infected at moi 3 with scrb or GCase polypeptide shRNA expressing lentiviral vectors. On dpi 4, ^3H-leucine (PerkinElmer, # NET460A001 MC, final 5 μCi/ml) was added in standard neurobasal medium containing B27 for 2 days to trace label proteins. […] Samples were centrifuged at 20,000×g for 20 min, 4° C., and the radioactivity was measured in 5 ml of scintillation cocktail using a Beckman LS 1701 liquid scintillation counter (Beckman Instruments). Precipitated protein pellets were extracted in 200 μl of Na deoxycholate, 0.1 M NaOH, and radioactivity was determined. Percent proteolysis was calculated as described in detail elsewhere (Kaushik et al. Methods Enzymol. 452: 297, 2009). […]

[6] = system: LC3-II; test: LC3-II western blot in primary cortical neurons; assay type: cell-based, mouse; details: leupeptin compared with GCase polypeptide KD
Method: as §1
Most materials for SDS-PAGE were obtained from Invitrogen (NuPAGE system). […] Blots were blocked in Odyssey blocking buffer (Li-Cor biosciences) containing 0.05% Tween, or 5% non-fat dry milk in TBS-T 0.2%, followed by incubation with primary antibodies (see above for dilutions), and detected with anti-mouse or -rabbit IgG conjugated to IRDye 680 or 800 (1:10,000, Li-Cor biosciences). […] Any nonspecific bands detected were not included in densitometric analyses. […]

[7] = system: Hela cells; test: Lysosomal proteolysis by radioactive pulse-chase in transfected Hela cells; assay type: cell-based
Method: (§4) Further in this Example, it was assessed whether GCase polypeptide overexpression had the ability to directly enhance lysosomal proteolysis in a non-neuronal cell line. Hela cells were transfected with a myc-tagged GCase polypeptide expression construct and lysosomal proteolysis was assessed by radioactive pulse-chase (FIG. 17A). […] This effect was also confirmed through a different assay, by measuring the effect of GCase polypeptide overexpression on the activity of the lysosomal protease cathepsin B. A cell-permeable fluorescent-tagged cathepsin B substrate (MAGIC RED cathepsin detection kit, Immunochemistry Technologies) was added to transfected Hela cells, and degradation of this substrate was determined in living cells after substrate wash-out.

[8] = system: cathepsin B; test: Cathepsin B activity in living transfected Hela cells (fluorescent substrate); assay type: cell-based; details: overexpression in transfected Hela cells, versus GFP
Method: as §4
In this Example, it was investigated whether enhancement of lysosomal enzyme trafficking through stimulation of the secretory pathway would result in increased lysosomal function and reduction of α-synuclein. Therefore, in this Example the small GTPase Rab1a polypeptide was overexpressed by lentiviral infection in iPS neurons to stimulate enzyme trafficking. […] The effect of Rab1a polypeptide was determined in human iPS dopamine neurons derived from reprogrammed fibroblasts of a PD patient (Coriell line ND27760). […] Further in this Example, it was determined if Rab1a polypeptide enhances lysosomal function by monitoring cathepsin B activity.

[9] = system: α-synuclein; test: α-synuclein levels by western blot in human midbrain iPS dopamine neurons; assay type: cell-based; details: lentiviral overexpression, moi 5, human PD dopamine neurons (Coriell line ND27760, SNCA triplication)
Text: In this Example, it was investigated whether enhancement of lysosomal enzyme trafficking through stimulation of the secretory pathway would result in increased lysosomal function and reduction of α-synuclein. Therefore, in this Example the small GTPase Rab1a polypeptide was overexpressed by lentiviral infection in iPS neurons to stimulate enzyme trafficking. Rab1a polypeptide has been established to function specifically at the ER-Golgi step of the secretory pathway (Duvernay et al., Cell Signal 17: 1457, 2005). The effect of Rab1a polypeptide was determined in human iPS dopamine neurons derived from reprogrammed fibroblasts of a PD patient (Coriell line ND27760). These cells harbor a triplication mutation in the genomic region containing SNCA which encodes for α-synuclein, leading to overexpression of the protein and lysosomal trafficking deficits. […] Further in this Example, it was determined if Rab1a polypeptide enhances lysosomal function by monitoring cathepsin B activity.
It was also shown in this Example that treatment with the GCase polypeptide activator increased the levels of total GCase protein and increased the post-ER forms, indicating enhancement of flux to the lysosome (FIG. 19B).
Most materials for SDS-PAGE were obtained from Invitrogen (NuPAGE system). Protein lysates were boiled in sample buffer (20 mM Tris, 1% (v/v) glycerol, 180 mM β-mercaptoethanol, 0.003% (w/v) bromophenol blue, 2% (w/v) SDS, pH 6.8), resolved on 4%-12% Bis-Tris polyacrylamide precast gels in a MOPS-SDS running buffer, or 4%-12% Tris-Glycine gels. 10% Tris-Glycine gels were utilized for some GCase polypeptide western blot's (FIGS. 13B, 13D, and 13E, and FIGS. 14C and 14F). […] Blots were blocked in Odyssey blocking buffer (Li-Cor biosciences) containing 0.05% Tween, or 5% non-fat dry milk in TBS-T 0.2%, followed by incubation with primary antibodies (see above for dilutions), and detected with anti-mouse or -rabbit IgG conjugated to IRDye 680 or 800 (1:10,000, Li-Cor biosciences). […] Any nonspecific bands detected were not included in densitometric analyses. […]

[10] = leupeptin-treated WT α-synuclein-expressing neurons

Molecule	levels of total insoluble proteins, fold increase [1]	percentage of cells with condensed nuclei compared to untreated control cells ([2]; 7 dpi)	percentage of cells containing α-synuclein/LAMP1 colocalized puncta ([2]; leupeptin-treated cells)	neurotoxicity at later time points ([3]; >12 dpi)	α-synuclein-mediated neurotoxicity ([3]; WT α-synuclein-expressing neurons, 50 μM leupeptin, 7 dpi)	T-insoluble α-synuclein [4, 10]	amount of soluble α-synuclein [4, 10]	total α-synuclein immunostaining intensity ([4]; leupeptin-treated compared to control cells)	soluble HMW α-synuclein by SEC ([4]; leupeptin-treated neurons)	proteolysis of long-lived proteins in GCase polypeptide shRNA-treated cells [5]	levels of LC3-II [6]	effect of lysosomal inhibitors on the proteolysis increase by GCase polypeptide overexpression [7]	cathepsin B activity [8]	α-synuclein levels [9]	increase in proteolysis compared to GFP control transfected cells ([7]; myc-tagged GCase polypeptide expression construct)
CC(=O)N[C@@H](CC(C)C)C(=O)N[C@@H](CC(C)C)C(=O)N[C@H](C=O)CCCNC(=N)N [leupeptin]	~2 fold	did not alter	~90%	did result in neurotoxicity	did not enhance	increase	no change	increase	not detectable	did not additively inhibit	comparable increase	completely reversed	–	–	–
Rab1a polypeptide: small GTPase overexpressed by lentiviral infection or transfection; SEQ ID NO. 13	–	–	–	–	–	–	–	–	–	–	–	–	increase	dramatic reduction	–
B1	–	–	–	–	–	–	–	–	–	–	–	–	increased	–	40%
